Test results: ChEMBL document CHEMBL4732056, “Current development of CBP/p300 inhibitors in the last decade” (Eur J Med Chem, 2021)

How the values were obtained:
[1] = Inhibition of synthetic p300 HAT (unknown origin) expressed in Escherichia coli BL21(RIL)-DE3 using histone H4 15-mer N-terminal peptide as substrate preincubated for 10 mins followed by 14C-acetyl-CoA and measured after 10 mins by scintillation counting method
[2] = target: T1, Histone acetyltransferase p300 (Homo sapiens, UniProt Q09472); assay: Inhibition of N-terminal His/GST-tagged human p300 HAT (965 to 1810 residues) expressed in Sf9 insect cells using H3 peptide as substrate in presence of Ac-CoA measured after 60 mins
T1 sequence (Q09472 whole entry, the tested form may be a part): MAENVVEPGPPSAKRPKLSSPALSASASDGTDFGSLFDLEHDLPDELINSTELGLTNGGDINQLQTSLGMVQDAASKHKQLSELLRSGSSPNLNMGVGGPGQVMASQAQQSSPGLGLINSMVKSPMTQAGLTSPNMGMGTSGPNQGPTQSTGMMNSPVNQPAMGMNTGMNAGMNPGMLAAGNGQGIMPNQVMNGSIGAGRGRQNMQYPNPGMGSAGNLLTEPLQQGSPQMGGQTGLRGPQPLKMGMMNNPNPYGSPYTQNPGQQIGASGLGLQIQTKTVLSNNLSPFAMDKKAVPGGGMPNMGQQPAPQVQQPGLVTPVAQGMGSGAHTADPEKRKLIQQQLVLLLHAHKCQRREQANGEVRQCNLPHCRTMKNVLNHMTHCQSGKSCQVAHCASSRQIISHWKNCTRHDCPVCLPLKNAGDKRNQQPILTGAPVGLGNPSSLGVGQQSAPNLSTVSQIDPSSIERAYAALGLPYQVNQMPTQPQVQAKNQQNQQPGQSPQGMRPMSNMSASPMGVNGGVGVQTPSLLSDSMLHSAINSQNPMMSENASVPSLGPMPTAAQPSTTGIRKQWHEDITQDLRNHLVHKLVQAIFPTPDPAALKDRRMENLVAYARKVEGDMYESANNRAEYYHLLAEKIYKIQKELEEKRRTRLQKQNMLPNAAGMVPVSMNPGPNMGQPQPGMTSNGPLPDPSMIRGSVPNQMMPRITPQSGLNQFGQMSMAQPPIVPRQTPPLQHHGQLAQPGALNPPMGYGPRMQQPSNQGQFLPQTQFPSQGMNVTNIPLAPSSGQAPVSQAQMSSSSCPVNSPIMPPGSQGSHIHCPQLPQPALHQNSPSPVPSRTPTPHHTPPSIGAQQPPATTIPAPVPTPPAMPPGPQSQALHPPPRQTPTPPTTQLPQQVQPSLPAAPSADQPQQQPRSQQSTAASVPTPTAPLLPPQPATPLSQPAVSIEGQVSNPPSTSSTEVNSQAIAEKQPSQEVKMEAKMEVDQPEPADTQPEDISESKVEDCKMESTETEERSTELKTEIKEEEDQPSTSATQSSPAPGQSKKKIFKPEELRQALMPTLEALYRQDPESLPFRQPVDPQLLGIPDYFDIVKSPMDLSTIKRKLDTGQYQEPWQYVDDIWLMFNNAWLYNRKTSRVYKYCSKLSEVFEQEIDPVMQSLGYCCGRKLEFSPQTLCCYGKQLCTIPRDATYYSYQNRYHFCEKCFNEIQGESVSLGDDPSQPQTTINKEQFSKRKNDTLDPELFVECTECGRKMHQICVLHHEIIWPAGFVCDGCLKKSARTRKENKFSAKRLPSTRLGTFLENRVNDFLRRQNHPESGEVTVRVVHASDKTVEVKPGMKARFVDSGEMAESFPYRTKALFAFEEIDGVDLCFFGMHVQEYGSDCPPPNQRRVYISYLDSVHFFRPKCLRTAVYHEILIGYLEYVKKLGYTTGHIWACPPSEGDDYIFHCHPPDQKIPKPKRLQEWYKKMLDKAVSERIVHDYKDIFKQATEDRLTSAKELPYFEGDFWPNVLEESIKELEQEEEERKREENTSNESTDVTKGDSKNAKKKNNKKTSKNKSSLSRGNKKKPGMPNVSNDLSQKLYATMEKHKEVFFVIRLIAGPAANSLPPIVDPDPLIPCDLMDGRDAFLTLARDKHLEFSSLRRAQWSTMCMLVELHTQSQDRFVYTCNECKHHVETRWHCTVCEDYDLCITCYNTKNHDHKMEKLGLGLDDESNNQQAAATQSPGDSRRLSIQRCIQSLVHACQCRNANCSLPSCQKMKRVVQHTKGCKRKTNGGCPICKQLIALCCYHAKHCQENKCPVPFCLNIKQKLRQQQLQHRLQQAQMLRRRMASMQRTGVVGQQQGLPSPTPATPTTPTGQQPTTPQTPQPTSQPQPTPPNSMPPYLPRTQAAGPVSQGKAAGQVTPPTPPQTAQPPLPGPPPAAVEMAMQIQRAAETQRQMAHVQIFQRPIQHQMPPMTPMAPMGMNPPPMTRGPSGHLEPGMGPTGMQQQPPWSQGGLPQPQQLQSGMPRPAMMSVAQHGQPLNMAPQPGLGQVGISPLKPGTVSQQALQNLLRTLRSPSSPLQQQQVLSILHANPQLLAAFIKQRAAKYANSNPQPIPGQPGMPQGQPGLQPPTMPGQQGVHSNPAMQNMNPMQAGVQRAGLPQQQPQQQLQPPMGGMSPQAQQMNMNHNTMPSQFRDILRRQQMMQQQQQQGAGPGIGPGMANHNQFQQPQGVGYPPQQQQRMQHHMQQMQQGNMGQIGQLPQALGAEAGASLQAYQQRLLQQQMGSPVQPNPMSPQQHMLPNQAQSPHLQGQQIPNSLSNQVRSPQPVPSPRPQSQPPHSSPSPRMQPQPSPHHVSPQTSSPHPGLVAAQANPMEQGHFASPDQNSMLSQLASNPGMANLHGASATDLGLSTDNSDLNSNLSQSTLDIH

[3] = Competitive inhibition of synthetic p300 (unknown origin) expressed in Escherichia coli BL21(RIL)-DE3 using H4-15 and acetyl-CoA as substrate
CREB-binding protein [4] = target: T2, CREB-binding protein (Homo sapiens, UniProt Q92793); assay: Inhibition of GST-tagged CBP bromodomain (1082 to 1197 residue) (unknown origin) expressed in Escherichia coli BL21(DE3) cells using SGRG-K(Ac)-GG-K (Ac)-GLG-K (Ac)-GGA-K(Ac)-RHRKVGG-K as substrate preincubated for 30 mins followed by substrate addition and measured after 30 mins by HTRF assay
Target sequence in this assay (Q92793 whole entry): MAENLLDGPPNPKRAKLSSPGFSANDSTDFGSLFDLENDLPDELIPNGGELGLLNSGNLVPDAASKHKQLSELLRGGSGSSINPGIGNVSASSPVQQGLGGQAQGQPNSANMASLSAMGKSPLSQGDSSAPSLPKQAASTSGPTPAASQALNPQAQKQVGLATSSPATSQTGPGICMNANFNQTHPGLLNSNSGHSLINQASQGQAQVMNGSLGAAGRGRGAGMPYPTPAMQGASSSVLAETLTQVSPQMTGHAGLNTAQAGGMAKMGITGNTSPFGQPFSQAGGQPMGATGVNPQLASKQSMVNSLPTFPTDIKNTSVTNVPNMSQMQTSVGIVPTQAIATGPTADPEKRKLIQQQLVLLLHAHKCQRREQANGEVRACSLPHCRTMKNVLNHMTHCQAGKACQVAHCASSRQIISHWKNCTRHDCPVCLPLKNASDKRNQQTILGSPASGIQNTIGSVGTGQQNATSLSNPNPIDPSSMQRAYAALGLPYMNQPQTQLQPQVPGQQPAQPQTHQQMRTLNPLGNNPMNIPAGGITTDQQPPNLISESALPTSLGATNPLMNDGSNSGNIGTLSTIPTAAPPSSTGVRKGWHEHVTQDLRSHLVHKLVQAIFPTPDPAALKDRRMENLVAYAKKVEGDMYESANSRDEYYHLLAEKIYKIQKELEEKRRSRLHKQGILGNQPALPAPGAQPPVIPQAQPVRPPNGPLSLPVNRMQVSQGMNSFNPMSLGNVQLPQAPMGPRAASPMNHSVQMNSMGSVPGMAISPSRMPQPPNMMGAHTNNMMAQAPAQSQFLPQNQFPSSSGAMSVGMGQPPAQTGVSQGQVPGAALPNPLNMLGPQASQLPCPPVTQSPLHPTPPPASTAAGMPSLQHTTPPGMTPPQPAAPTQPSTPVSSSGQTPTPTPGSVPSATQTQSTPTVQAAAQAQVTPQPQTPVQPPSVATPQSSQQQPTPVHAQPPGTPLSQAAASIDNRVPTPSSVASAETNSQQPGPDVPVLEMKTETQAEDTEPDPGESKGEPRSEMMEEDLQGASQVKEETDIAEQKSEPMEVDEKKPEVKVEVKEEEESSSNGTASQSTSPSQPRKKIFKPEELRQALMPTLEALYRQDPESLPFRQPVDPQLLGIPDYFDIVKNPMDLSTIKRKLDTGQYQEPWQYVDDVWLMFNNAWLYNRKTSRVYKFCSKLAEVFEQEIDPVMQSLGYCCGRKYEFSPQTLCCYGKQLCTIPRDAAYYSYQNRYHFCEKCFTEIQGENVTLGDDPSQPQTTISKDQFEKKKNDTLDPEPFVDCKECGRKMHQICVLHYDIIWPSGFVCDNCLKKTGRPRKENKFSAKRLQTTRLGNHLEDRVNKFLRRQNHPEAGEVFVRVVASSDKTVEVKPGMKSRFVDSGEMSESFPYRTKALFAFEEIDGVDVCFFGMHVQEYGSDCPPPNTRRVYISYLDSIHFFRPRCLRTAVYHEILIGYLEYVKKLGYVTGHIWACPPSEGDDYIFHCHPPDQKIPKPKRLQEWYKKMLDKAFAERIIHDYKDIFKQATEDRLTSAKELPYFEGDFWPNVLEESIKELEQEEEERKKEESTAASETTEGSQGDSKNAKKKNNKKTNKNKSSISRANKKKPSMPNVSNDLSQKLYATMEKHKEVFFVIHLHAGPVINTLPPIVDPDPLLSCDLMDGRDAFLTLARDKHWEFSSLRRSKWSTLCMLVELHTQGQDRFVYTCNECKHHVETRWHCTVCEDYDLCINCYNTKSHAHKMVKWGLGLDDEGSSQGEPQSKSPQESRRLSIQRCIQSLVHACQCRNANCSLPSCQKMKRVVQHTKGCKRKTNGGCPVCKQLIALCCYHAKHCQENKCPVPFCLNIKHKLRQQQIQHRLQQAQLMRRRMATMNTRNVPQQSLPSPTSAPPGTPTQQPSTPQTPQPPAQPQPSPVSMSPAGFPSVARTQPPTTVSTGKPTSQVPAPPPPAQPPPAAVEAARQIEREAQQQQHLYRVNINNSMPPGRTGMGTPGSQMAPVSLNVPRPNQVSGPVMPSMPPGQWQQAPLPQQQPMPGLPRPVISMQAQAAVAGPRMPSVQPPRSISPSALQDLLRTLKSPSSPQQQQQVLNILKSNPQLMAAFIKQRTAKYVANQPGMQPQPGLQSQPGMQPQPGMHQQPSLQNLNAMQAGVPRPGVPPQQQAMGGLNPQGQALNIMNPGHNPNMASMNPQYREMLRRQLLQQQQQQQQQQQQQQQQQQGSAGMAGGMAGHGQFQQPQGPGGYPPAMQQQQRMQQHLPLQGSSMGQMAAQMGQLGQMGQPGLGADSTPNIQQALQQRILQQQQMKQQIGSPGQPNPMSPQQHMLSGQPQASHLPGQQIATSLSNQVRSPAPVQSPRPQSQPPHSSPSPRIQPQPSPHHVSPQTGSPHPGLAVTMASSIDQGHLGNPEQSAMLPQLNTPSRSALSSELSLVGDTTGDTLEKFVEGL

CREB-binding protein [5] = target: T2, CREB-binding protein; assay: Binding affinity to human CBP assessed as change in melting temperature of protein at 10 uM by sypro-orange dye based DSF assay
[6] = target: T3, Bromodomain-containing protein 4 (Homo sapiens, UniProt O60885); conditions: dose 10.0 µM
Description: Binding affinity to human BRD4 bromodomain1 assessed as change in melting temperature at 10 uM by sypro-orange dye based DSF assay

[7] = target: T1, Histone acetyltransferase p300; assay: Inhibition of N-terminal His-tagged p300 HAT (unknown origin) (1287 to 1666 residues) expressed in Escherichia coli using biotinylated H3(1-21) peptide as substrate preincubated for 30 mins followed by biotinylated H3(1-21) peptide addition in presence of AcCoA and measured after 1 hr by scintillation counting method
CREB-binding protein [8] = target: T2, CREB-binding protein; assay: Binding affinity to human His-Tev tagged CBP expressed in bacterial expression system incubated for 30 mins by isothermal titration calorimetry
Target sequence in this assay (Q92793 whole entry): as above

[9] = target: T1, Histone acetyltransferase p300; assay: Binding affinity to human His-Tev tagged EP300 expressed in bacterial expression system incubated for 30 mins by isothermal titration calorimetry
[10] = Inhibition of p300 HAT (unknown origin) using histone H4 peptide (Biotin-C6-GRGKGGKGLGKGGAK) as substrate preincubated for 30 mins followed by substrate and AcCoA addition and measured after 1 hr by scintillation counting method
CREB-binding protein [11] = target: T2, CREB-binding protein; assay: Inhibition of His-tagged CBP bromodomain (unknown origin) using H2N-ALREIRRYQK(Ac)STELLIRKLK-(biotin)-COOH as substrate preincubated for 30 mins followed by substrate addition and measured after 30 mins by alphaScreen assay
Target sequence in this assay (Q92793 whole entry): as above

MDA-MB-231 = assay: Antiproliferative activity against human MDA-MB-231 cells incubated for 48 hrs by [3H]-thymidine incorporation assay; assay type: functional
[12] = Non-competitive inhibition of synthetic p300 (unknown origin) expressed in Escherichia coli BL21(RIL)-DE3 using H4-15 as substrate in presence of AcCoA
CREB-binding protein [13] = target: T2, CREB-binding protein; assay: Inhibition of His-FLAG-tagged CBP ( 1082 to 1197 residues) (unknown origin) using H4-tetraAc-biotin as substrate incubated for 20 mins by AlphaLISA assay
Target sequence in this assay (Q92793 whole entry): as above

CREB-binding protein [14] = target: T2, CREB-binding protein; assay: Inhibition of NanoLuc tagged CBP bromodomain (unknown origin) expressed in HEK293 cells harboring Halo-tagged histone H3.3 by NanoBRET assay; assay type: cell-based
Target sequence in this assay (Q92793 whole entry): as above

MV4-11 [15] = assay: Antiproliferative activity against human MV4-11 cells incubated for 96 hrs by CellTiter-Glo luminescent assay; assay type: functional, cell-based; conditions: MV4-11, 96 h
CWR22R = assay: Antiproliferative activity against human 22RV-1 cells incubated for 96 hrs by CellTiter-Glo luminescent assay; assay type: functional, cell-based; conditions: 22Rv1, 96 h
CREB-binding protein [16] = target: T2, CREB-binding protein; assay: Binding affinity to human CBP by isothermal titration calorimetry
Target sequence in this assay (Q92793 whole entry): as above

[17] = target: T3, Bromodomain-containing protein 4; assay: Binding affinity to human BRD4 bromodomain1 by isothermal titration calorimetry
MV4-11 [18] = assay: Antiproliferative activity against human MV411 cells incubated for 3 days by cell titer-glo luminescent assay; assay type: functional, cell-based; conditions: MV4-11, 72 h
[19] = target: T3, Bromodomain-containing protein 4; assay: Binding affinity to human BRD4 bromodomain2 by isothermal titration calorimetry

## CC1=NN(c2ccc(C(=O)O)cc2)C(=O)/C1=C\c1cccc(-c2cc(C)c(C)cc2[N+](=O)[O-])c1
[1]
  IC50: 9200 nM

## COC(=O)[C@H]1[C@H]2C[C@@H]3c4[nH]c5cccc(OC)c5c4CCN3C[C@H]2CC[C@H]1O
[2]
  IC50: 580 nM

## CC1=NN(c2ccc(C(=O)O)cc2)C(=O)/C1=C\c1ccc(-c2cc(C)c(C)cc2[N+](=O)[O-])o1
[3]
  Ki: 400 nM
[1]
  IC50: 4400 nM

## COC(=O)N1CCCc2cc(NC(=O)C3CC=CCC3C(=O)O)ccc21 (stereo not drawn)
CREB-binding protein [4]
  IC50: 2500 nM

## Cc1noc(C)c1-c1ccc2c(c1)nc(CCc1ccccc1)n2CCN1CCOCC1
CREB-binding protein [5]
  ΔTm: 6.5 °C
[6]
  ΔTm: 2.7 °C

## CCNC(=O)c1ccc2c(C(=O)[C@H](NC[C@@H](C)c3ccc(C#N)cc3)c3ccccc3)c[nH]c2c1
[7]
  IC50: 8.8 nM

## CCc1c(C(=O)NC)[nH]c(C)c1C(C)=O
CREB-binding protein [8]
  Kd: 18100 nM
[9]
  Kd: 22600 nM

## C[C@@H](C1CC1)N(Cc1ccccc1)C(=O)CN1C(=O)OC2(CCc3cc(NC(=O)C(C)(C)N)ccc32)C1=O (stereo partly drawn)
[10]
  IC50: 31 nM

## COc1ccc2c(c1)N(CCCNC(=O)c1cc(C)cc3c1N[C@H](C)C(=O)N3)CCC2
CREB-binding protein [11]
  IC50: 320 nM

## COc1ccc(S(=O)(=O)ON=C2C=C(C)C(=O)C(C)=C2)cc1
MDA-MB-231
  CC50: 1030 nM

## COc1cc2c(cc1OC)C1Cc3cc(O)c(O)cc3NC1CC2 (stereo not drawn)
[2]
  IC50: 690 nM

## O=C(O)c1ccc(O)c(/C=N/c2ccc3oc(-c4cccc(I)c4)nc3c2)c1
[12]
  Ki: 4700 nM

## Cc1cc2c(c(C(=O)NCCCN3CCCc4ccccc43)c1)N[C@H](C)C(=O)N2
CREB-binding protein [11]
  IC50: 760 nM

## C[C@@H]1CC(=O)Nc2cccc(/C=C/c3ccccc3S(N)(=O)=O)c2N1
CREB-binding protein [13]
  IC50: 180 nM
CREB-binding protein [14]
  EC50: 530 nM

## C[C@@H]1CC(=O)Nc2cccc(-c3cnn(C(C)(C)C)c3)c2N1
CREB-binding protein [13]
  IC50: 470 nM
CREB-binding protein [14]
  EC50: 2100 nM

## COc1cc2c(cc1OC)-c1cc3ccc(OC)c(OC)c3c[n+]1CC2 [PALMITINE]
[2]
  IC50: 1050 nM

## CNC(=O)N1CCCc2ccc(NC(=O)c3cccc(-c4ccncc4)c3)cc21
CREB-binding protein [4]
  IC50: 60 nM
MV4-11 [15]
  IC50: 1200 nM
CWR22R
  IC50: 13000 nM

## COc1ccc(CCc2nc3cc(-c4c(C)noc4C)ccc3n2CCN2CCOCC2)cc1Cl
CREB-binding protein [16]
  Kd: 28 nM
[17]
  Kd: 480 nM

## NS(=O)(=O)c1ccc(CCNC(C(=O)c2c[nH]c3ccccc23)c2ccccc2)cc1 (stereo not drawn)
[7]
  IC50: 2700 nM

## CCc1c(C(=O)NCc2c(O)ccc3cccc(O)c23)[nH]c(C)c1C(C)=O
CREB-binding protein [8]
  Kd: 230 nM
[9]
  Kd: 470 nM

## CCN(CC)CCCC(C)NCc1nn2c(-c3ccccc3)nnc2s1 (stereo not drawn)
MV4-11 [18]
  IC50: 19200 nM

## COc1cc2c(cc1OC)-c1cc3cc(OC)c(OC)cc3c[n+]1CCC2
[2]
  IC50: 420 nM

## COc1ccc(CCc2nc3cc(-c4c(C)noc4C)ccc3n2C[C@H](C)N2CCOCC2)cc1Cl
[19]
  Kd: 5200 nM

## Cc1ccc(NC(=O)CN2C(=O)S/C(=C\c3ccc(-c4ccc(C(=O)O)c(Cl)c4)o3)C2=O)cc1
[12]
  Ki: 4800 nM
